{
  "source": "patent US20210205417A1",
  "about": "“PH 7 INJECTABLE SOLUTION COMPRISING AT LEAST ONE BASAL INSULIN OF WHICH THE PI IS FROM 5.8 TO 8.5 AND A CO-POLYAMINO ACID BEARING CARBOXYLATE CHARGES AND HYDROPHOBIC RADICALS AND A LIMITED AMOUNT OF M-CRESOL” (ADOCIA, priority 2018, published 2021)",
  "origin": "cited, not measured here",
  "conditions": "patients",
  "data": [
    {"substance": "insulin glargine", "values": [
      {"measurement": "period over which the hypoglycemic effect is almost constant", "result": 24, "unit": "h"}
    ]}
  ]
}
